These compounds were tested against T1, HPK1 (Homo sapiens, UniProt Q92918) (assay: HPK1 biochemical enzyme assay (microfluidic mobility shift assay)). Details: 1000 uM (1 mM) ATP; Caliper mobility shift; 1.5 nM HPK1; 30 min preincubation; read-out: HPK1 1000UMATP caliper IC50.
T1 construct: purchased Invitrogen
Summary of the method: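 IC50 values, grouped into activity categories, come from 10-point titrations (top final 3 μM) preincubated 30 min with 1.5 nM enzyme and substrate at pH 7.4. ATP (1 mM), substrate (1 μM) and MgCl2 (5 mM) then added; after 60 min at RT, product separated by microfluidic mobility shift.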

T1 sequence (Q92918 whole entry): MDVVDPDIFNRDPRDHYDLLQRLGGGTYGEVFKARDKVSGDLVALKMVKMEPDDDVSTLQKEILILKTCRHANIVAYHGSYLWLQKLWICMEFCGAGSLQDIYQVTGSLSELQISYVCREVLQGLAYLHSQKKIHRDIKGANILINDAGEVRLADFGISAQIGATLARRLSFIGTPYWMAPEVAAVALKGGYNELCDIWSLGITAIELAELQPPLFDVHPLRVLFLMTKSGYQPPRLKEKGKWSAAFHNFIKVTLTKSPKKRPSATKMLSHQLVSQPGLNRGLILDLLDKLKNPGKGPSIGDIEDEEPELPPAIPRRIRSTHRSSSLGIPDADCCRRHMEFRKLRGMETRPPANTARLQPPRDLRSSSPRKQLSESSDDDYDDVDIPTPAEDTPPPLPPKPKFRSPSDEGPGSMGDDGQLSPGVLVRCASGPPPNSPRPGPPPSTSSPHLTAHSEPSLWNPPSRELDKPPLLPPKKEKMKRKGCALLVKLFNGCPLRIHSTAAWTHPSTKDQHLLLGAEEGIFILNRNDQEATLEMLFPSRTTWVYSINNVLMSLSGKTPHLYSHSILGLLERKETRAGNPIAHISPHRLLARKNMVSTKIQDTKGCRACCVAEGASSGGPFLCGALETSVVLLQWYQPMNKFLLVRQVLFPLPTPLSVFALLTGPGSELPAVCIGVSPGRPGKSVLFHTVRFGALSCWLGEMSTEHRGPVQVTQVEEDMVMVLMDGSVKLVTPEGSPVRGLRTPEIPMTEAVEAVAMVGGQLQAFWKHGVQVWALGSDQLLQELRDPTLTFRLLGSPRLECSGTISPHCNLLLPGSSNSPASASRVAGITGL

IC50 [nM]	Structure (SMILES)
≤ 100	Cc1cc(-c2cc(Nc3ccc(N4CCC(O)CC4)cn3)c3c(=O)[nH]ccc3n2)c(F)cc1C(=O)N1CCCCC1 [I-114, 2-[2-fluoro-5-methyl-4-(piperidine-1-carbonyl)phenyl]-4-[[5-(4-hydroxy-1-piperidyl)-2-pyridyl]amino]-6H-1,6-naphthyridin-5-one]
≤ 100	O=C(c1ccc(-c2cc(Nc3ccc(N4CCC(O)CC4)cn3)c3c(=O)[nH]ccc3n2)c(F)c1)N1CCCC1 [I-115, 2-[2-fluoro-4-(pyrrolidine-1-carbonyl)phenyl]-4-[[5-(4-hydroxy-1-piperidyl)-2-pyridyl]amino]-6H-1,6-naphthyridin-5-one]
100 to 1000	CC(C)(O)c1ccc(F)c(-c2cc(Nc3ccc(N4CCC(O)CC4)cn3)c3c(=O)[nH]ccc3n2)c1 [I-116, 2-[2-fluoro-5-(1-hydroxy-1-methyl-ethyl)phenyl]-4-[[5-(4-hydroxy-1-piperidyl)-2-pyridyl]amino]-6H-1,6-naphthyridin-5-one]
100 to 1000	CN(C)Cc1ccc(F)c(-c2cc(Nc3ccc(N4CCC(O)CC4)cn3)c3c(=O)[nH]ccc3n2)c1 [I-117, 2-[5-[(dimethyl-amino)methyl]-2-fluoro-phenyl]-4-[[5-(4-hydroxy-1-piperidyl)-2-pyridyl]amino]-6H-1,6-naphthyridin-5-one]
100 to 1000	O=c1[nH]ccc2nc(-c3cc4[nH]ccc4cc3F)cc(Nc3ccc(N4CCC(O)CC4)cn3)c12 [I-118, 2-(5-fluoro-1H-indol-6-yl)-4-[[5-(4-hydroxy-1-piperidyl)-2-pyridyl]amino]-6H-1,6-naphthyridin-5-one]
100 to 1000	O=C(c1ccc(-c2cc(Nc3ccc(N4CCC(O)CC4)cn3)c3c(=O)[nH]ccc3n2)c(F)c1)N1CCNCC1 [I-119, 2-[2-fluoro-4-(piperazine-1-carbonyl)phenyl]-4-[[5-(4-hydroxy-1-piperidyl)-2-pyridyl]amino]-6H-1,6-naphthyridin-5-one]
100 to 1000	O=C(c1ccc(-c2cc(Nc3ccc(N4CCC(O)CC4)cn3)c3c(=O)[nH]ccc3n2)c(F)c1)N1CCOCC1 [I-120]
≤ 100	CC(C)c1ccc(F)c(-c2cc(Nc3ccc(N4CCC5(CCOCC5)CC4)cn3)c3c(=O)[nH]ccc3n2)c1 [I-121, 2-(2-fluoro-5-isopropyl-phenyl)-4-[[5-(3-oxa-9-azaspiro [5.5]undecan-9-yl)-2-pyridyl]amino]-6H-1,6-naphthyridin-5-one]
100 to 1000	CC(C)c1ccc(F)c(-c2cc(Nc3ccc(N4[C@H](C)COC[C@H]4C)cn3)c3c(=O)[nH]ccc3n2)c1 [I-122, 4-[[5-[(3R,5R)-3,5-dimethyl-morpholin-4-yl]-2-pyridyl]amino]-2-(2-fluoro-5-isopropyl-phenyl)-6H-1,6-naphthyridin-5-one]
≤ 100	CC(O)(c1ccc(F)c(-c2cc(Nc3ccc(N4CCC(O)CC4)cn3)c3c(=O)[nH]ccc3n2)c1)C(F)(F)F (stereo not shown) [I-123, 2-[2-fluoro-5-(2,2,2-trifluoro-1-hydroxy-1-methyl-ethyl)phenyl]-4-[[5-(4-hydroxy-1-piperidyl)-2-pyridyl]amino]-6H-1,6-naphthyridin-5-one]
100 to 1000	O=C(c1ccc(-c2cc(Nc3ccc(N4CCC(O)CC4)cn3)c3c(=O)[nH]ccc3n2)c(F)c1)N1CC2CCC1CC2 [I-124, 2-[4-(3-azabicyclo [2.2.2]octane-3-carbonyl)-2-fluoro-phenyl]-4-[[5-(4-hydroxy-1-piperidyl)-2-pyridyl]amino]-6H-1,6-naphthyridin-5-one]
≤ 100	COC(=O)c1ccc(-c2cc(Nc3ccc(N4CCC(O)CC4)cn3)c3c(=O)[nH]ccc3n2)c(F)c1 [I-125, Methyl 3-fluoro-4-[4-[[5-(4-hydroxy-1-piperidyl)-2-pyridyl]amino]-5-oxo-6H-1,6-naphthyridin-2-yl]benzoate]
100 to 1000	O=C(c1ccc(-c2cc(Nc3ccc(N4CCC(O)CC4)cn3)c3c(=O)[nH]ccc3n2)c(F)c1)N1CCC1 [I-126, 2-[4-(azetidine-1-carbonyl)-2-fluoro-phenyl]-4-[[5-(4-hydroxy-1-piperidyl)-2-pyridyl]amino]-6H-1,6-naphthyridin-5-one]
100 to 1000	O=c1[nH]ccc2nc(-c3ccc(CN4CCCCC4)cc3F)cc(Nc3ccc(N4CCC(O)CC4)cn3)c12 [I-127]
100 to 1000	CCNC(=O)C(C)(C)c1ccc(Nc2cc(-c3cc(C(C)C)ccc3F)nc3cc[nH]c(=O)c23)nc1 [I-128, N-ethyl-2-[6-[[2-(2-fluoro-5-isopropyl-phenyl)-5-oxo-6H-1,6-naphthyridin-4-yl]amino]-3-pyridyl]-2-methyl-propanamide]
100 to 1000	CC(C)c1ccc(F)c(-c2cc(Nc3ccc(N4[C@@H](C)COC[C@@H]4C)cn3)c3c(=O)[nH]ccc3n2)c1 [I-129, 4-[[5-[(3S,5S)-3,5-dimethyl-morpholin-4-yl]-2-pyridyl]amino]-2-(2-fluoro-5-isopropyl-phenyl)-6H-1,6-naphthyridin-5-one]

IC50 [nM]	Structure (SMILES)
≤ 100	CC1CCCCN1C(=O)c1ccc(-c2cc(Nc3ccc(N4CCC(O)CC4)cn3)c3c(=O)[nH]ccc3n2)c(F)c1 (stereo not shown) [I-130, 2-[2-fluoro-4-(2-methyl-piperidine-1-carbonyl)phenyl]-4-[[5-(4-hydroxy-1-piperidyl)-2-pyridyl]amino]-6H-1,6-naphthyridin-5-one]
100 to 1000	CN1CCN(C(=O)c2ccc(-c3cc(Nc4ccc(N5CCC(O)CC5)cn4)c4c(=O)[nH]ccc4n3)c(F)c2)CC1 [I-131, 2-[2-fluoro-4-(4-methyl-piperazine-1-carbonyl)phenyl]-4-[[5-(4-hydroxy-1-piperidyl)-2-pyridyl]amino]-6H-1,6-naphthyridin-5-one]
100 to 1000	N#CC1CCN(C(=O)c2ccc(-c3cc(Nc4ccc(N5CCC(O)CC5)cn4)c4c(=O)[nH]ccc4n3)c(F)c2)CC1 [I-132, 1-[3-fluoro-4-[4-[[5-(4-hydroxy-1-piperidyl)-2-pyridyl]amino]-5-oxo-6H-1,6-naphthyridin-2-yl]benzoyl] piperidine-4-carbonitrile]
≤ 100	COC1CCCN(C(=O)c2ccc(-c3cc(Nc4ccc(N5CCC(O)CC5)cn4)c4c(=O)[nH]ccc4n3)c(F)c2)C1 (stereo not shown) [I-133, 2-[2-fluoro-4-(3-methoxy-piperidine-1-carbonyl)phenyl]-4-[[5-(4-hydroxy-1-piperidyl)-2-pyridyl]amino]-6H-1,6-naphthyridin-5-one]
≤ 100	O=C(O)c1ccc(-c2cc(Nc3ccc(N4CCC(O)CC4)cn3)c3c(=O)[nH]ccc3n2)c(F)c1 [I-134, 3-Fluoro-4-[4-[[5-(4-hydroxy-1-piperidyl)-2-pyridyl]amino]-5-oxo-6H-1,6-naphthyridin-2-yl]benzoic Acid]
≤ 100	CC1CCCN(C(=O)c2ccc(-c3cc(Nc4ccc(N5CCC(O)CC5)cn4)c4c(=O)[nH]ccc4n3)c(F)c2)C1 (stereo not shown) [I-135, 2-[2-fluoro-4-(3-methyl-piperidine-1-carbonyl)phenyl]-4-[[5-(4-hydroxy-1-piperidyl)-2-pyridyl]amino]-6H-1,6-naphthyridin-5-one]
≤ 100	COC1CCN(C(=O)c2ccc(-c3cc(Nc4ccc(N5CCC(O)CC5)cn4)c4c(=O)[nH]ccc4n3)c(F)c2)CC1 [I-136, 2-[2-fluoro-4-(4-methoxy-piperidine-1-carbonyl)phenyl]-4-[[5-(4-hydroxy-1-piperidyl)-2-pyridyl]amino]-6H-1,6-naphthyridin-5-one]
≤ 100	O=C(c1ccc(-c2cc(Nc3ccc(N4CCC(O)CC4)cn3)c3c(=O)[nH]ccc3n2)c(F)c1)N1CC2CCC1C2 (stereo not shown) [I-137, 2-[4-(3-azabicyclo [2.2.1]heptane-3-carbonyl) 2-fluoro-phenyl]-4-[[5-(4-hydroxy-1-piperidyl)-2-pyridyl]amino]-6H-1,6-naphthyridin-5-one]
100 to 1000	O=C(c1ccc(-c2cc(Nc3ccc(N4CCC(O)CC4)cn3)c3c(=O)[nH]ccc3n2)c(F)c1)N1CC2C(C1)C2(F)F (stereo not shown) [I-138, 2-[4-(6,6-difluoro-3-azabicyclo [3.1.0]hexane-3-carbonyl)-2-fluoro-phenyl]-4-[[5-(4-hydroxy-1-piperidyl)-2-pyridyl]amino]-6H-1,6-naphthyridin-5-one]
≤ 100	O=C(NC1CCCCC1)c1ccc(-c2cc(Nc3ccc(N4CCC(O)CC4)cn3)c3c(=O)[nH]ccc3n2)c(F)c1 [I-139, N-cyclohexyl-3-fluoro-4-[4-[[5-(4-hydroxy-1-piperidyl)-2-pyridyl]amino]-5-oxo-6H-1,6-naphthyridin-2-yl] benzamide]
≤ 100	O=C(c1ccc(-c2cc(Nc3ccc(N4CCC(O)CC4)cn3)c3c(=O)[nH]ccc3n2)c(F)c1)N1CCC(O)CC1 [I-140, 2-[2-fluoro-4-(4-hydroxy-piperidine-1-carbonyl)phenyl]-4-[[5-(4-hydroxy-1-piperidyl)-2-pyridyl]amino]-6H-1,6-naphthyridin-5-one]
> 1000	O=C(c1ccc(-c2cc(Nc3ccc(N4CCC(O)CC4)cn3)c3c(=O)[nH]ccc3n2)c(F)c1)N1CCCCC1CO (stereo not shown) [I-141, 2-[2-fluoro-4-[2-(hydroxy-methyl)piperidine-1-carbonyl]phenyl]-4-[[5-(4-hydroxy-1-piperidyl)-2-pyridyl]amino]-6H-1,6-naphthyridin-5-one]
≤ 100	O=C(c1ccc(-c2cc(Nc3ccc(N4CCC(O)CC4)cn3)c3c(=O)[nH]ccc3n2)c(F)c1)N1CC2CCC(C1)O2 [I-142, 2-[2-fluoro-4-(8-oxa-3-azabicyclo [3.2.1]octane-3-carbonyl)phenyl]-4-[[5-(4-hydroxy-1-piperidyl)-2-pyridyl]amino]-6H-naphthyridin-5-one]
> 1000	CN(C(=O)c1ccc(-c2cc(Nc3ccc(N4CCC(O)CC4)cn3)c3c(=O)[nH]ccc3n2)c(F)c1)C1CCCCC1 [I-143, N-cyclohexyl-3-fluoro-4-[4-[[5-(4-hydroxy-1-piperidyl)-2-pyridyl]amino]-5-oxo-6H-1,6-naphthyridin-2-yl]-N-methyl-benzamide]
> 1000	O=c1[nH]ccc2nc(N3CCC3)cc(Nc3ccc(N4CCC(O)CC4)cn3)c12 [I-144, 2-(azetidin-1-yl)-4-[[5-(4-hydroxy-1-piperidyl)-2-pyridyl]amino]-6H-1,6-naphthyridin-5-one]

Source: patent publication US12252488B2 (Nimbus Saturn, Inc., priority 2021, dated 2025)
